Assay results from patent publication US7972800B2, “Screening method for binding property or signal transduction alterations” (Takeda Pharmaceutical Company Limited, priority 2003, dated 2011).

Tests used:
rat GPR39 = type: cell-based; conditions: FLIPR, Fluo-3AM (FIG. 9 through FIG. 13)
Description: Using the CHO cell line where rat GPR39 was stably expressed, the agonist activity of metal ions was detected using FLIPR in terms of the intracellular calcium-increasing reaction as an indicator. The CHO cell line used, wherein rat GPR39 was stably expressed, was cultured in HAM's αMEM (Invitrogen Corp.) containing 10% calf fetal serum (Invitrogen Corp.). On the day before the assay was conducted, the human GPR39-expressing CHO cell line was cultured in a culture flask to reach a confluent state. After washing with PBS, the cells were scraped off using trypsin and centrifuged for recovery. The cells were then suspended in medium and the suspension was adjusted to 3×10^5 cells/ml. Then, the suspension was dispensed onto a black walled 96-well plate (Costar) in 100 μl each per well, followed by incubation overnight in a CO2 incubator.
(§1) On the day when the assay was conducted, various test samples were added to the cells and the changes of intracellular calcium levels in this case were determined by FLIPR (Molecular Device). In order to determine the changes in intracellular calcium levels on FLIPR, the cells were pre-treated by the following procedures. First, for the purpose of adding a fluorescent dye Fluo-3AM (DOJIN) to the cells or washing the cells immediately before the FLIPR assay, an assay buffer was prepared. A solution was prepared by adding 20 ml of 1M HEPES (pH 7.4) (DOJIN) to 1000 ml of HBSS (Invitrogen Corp.) (hereinafter HBSS/HEPES solution), to which solution was added 10 ml of a solution mixture obtained by dissolving 710 mg of Probenecid (Sigma) in 5 ml of 1N NaOH and further adding 5 ml of HBSS/HEPES solution thereto. The resulting solution was used as the assay buffer. Next, 50 μg of Fluo-3AM was dissolved in 21 μl of DMSO (DOJIN) and an equal volume of 20% Pluronic acid (Molecular Probes) was added to and mixed with the solution. The mixture was then added to 10.6 ml of the assay buffer supplemented with 105 μl of fetal calf serum to prepare a fluorescent dye solution. The medium for the CHO cells where human GPR39 was stably expressed was removed. Immediately thereafter, the fluorescent dye solution was dispensed in 100 μl each/well and the cells were incubated in a CO2 incubator for an hour so that the fluorescent dye was taken up into the cells. The cells after the incubation was washed with the assay buffer described above and set on FLIPR. A test sample to be added to the CHO cells where rat GPR39 was stably expressed was prepared using the assay buffer and set on FLIPR at the same time. Following the pre-treatment above, the changes in intracellular calcium levels after the addition of each test sample were determined by FLIPR.

[1] = test system: GPR39-expressed UM-UC-3 cells; assay: IL-8 secretion from GPR39-expressed UM-UC-3 cells, quantified by EIA; type: cell-based, human; conditions: 1 mM copper chloride, 12 hours incubation, culture supernatant
Description: Using GPR39-expressed UM-UC-3 cells, the effects of adding metal ions as the agonist for GPR39 were examined.
After washing with PBS, the cells were scraped off using trypsin and centrifuged for recovery. […] Next, the suspension was dispensed in a 6-well plate (Falcon) at 5 ml each per well, followed by incubation overnight in a CO2 incubator.
Then, 5 ml each was added to each well, followed by incubation at 37° C. in a CO2 incubator for […]. […] After the culture supernatant was recovered, IL-8 contained in the samples was quantified by EIA (Amersham).

[2] = test system: bladder (micturition) of conscious rats; assay: Cystometry in conscious rats with intravesical infusion; type: in vivo, rat; conditions: female SD rats, 1 mM CuCl2 in saline infused into the bladder
Description: Female SD rats of 9-10 weeks old were anaesthetized by intramuscular injection with 0.1 ml/100 g of a solution obtained by mixing ketamine (50 mg/mL) and xylazine (20 mg/mL) in 5:1. The bladder was then exposed via a midline incision and a hole was made with a 20-G needle to insert a polyethylene tube (PE-50), which tube was sutured to the bladder with cotton thread. The polyethylene tube cannulated into the bladder was cut at a length of about 1 cm, which was connected to a silicon tube (No. 00) and exposed to the dorsum through the skin. The animals were housed in individual cages until they were used for the experiments.
One day after the surgery, the animal was anesthetized with halothane and placed in Ballman cages under restricted conditions. After a three-way cock was connected to the tube cannulated into the bladder, a saline infusion tube was connected to a cystometry tube (resistance to infusion). An electronic scale was placed under the Ballman cages and the micturition volume was measured at the same time. When the anesthetic completely worn off, the infusion of saline into the bladder commenced and the bladder pressure and micturition volume were recorded on a personal computer via an A-D converter (MP-100, BIOPAC Systems) and analyzed using a dedicated software (AcqKnowledge, BIOPAC Systems).
Saline was infused into the bladder at the rate of 6 ml/hr and the infusion was continued for 1 or 2 hours until stable micturition was recorded. In order to enhance the permeability of a drug into the bladder, protamine sulfate (10 mg/mL in PBS) was infused into the bladder for an hour (Chuang Y, et. al., 2003, Urology, 63, 664-670). […] Then, saline was reinfused into the bladder and micturition was recorded at least 2 hours until protamine was completely washed off. […] Mean micturition intervals during from about 30 minutes to about 60 minutes after starting the infusion of CuCl2 were calculated to find a ratio to mean micturition intervals for about 30 minutes before the infusion of CuCl2 (% of the pre-value).

HT-1197 = conditions: FLIPR
Description: as §1, with “Immediately thereafter, the fluorescent dye solution was dispensed in 100 μl each/well and the cells were incubated in a CO2 incubator for an hour so that the fluorescent dye was taken up into the cells. The cells after the incubation was washed with the assay buffer described above and set on FLIPR. A test sample to be added to the CHO cells where rat GPR39 was stably expressed was prepared using the assay buffer and set on FLIPR at the same time.” left out, “FLIPR. […]” for “FLIPR.”

UM-UC-3 = conditions: FLIPR
Description: as §1, with “Immediately thereafter, the fluorescent dye solution was dispensed in 100 μl each/well and the cells were incubated in a CO2 incubator for an hour so that the fluorescent dye was taken up into the cells. The cells after the incubation was washed with the assay buffer described above and set on FLIPR. A test sample to be added to the CHO cells where rat GPR39 was stably expressed was prepared using the assay buffer and set on FLIPR at the same time.” left out, “FLIPR. […]” for “FLIPR.”

SMILES | intracellular calcium levels of CHO/rGPR39 (rat GPR39) | amount of IL-8 accumulated relative to absence of copper chloride [1] | basal pressure (bladder) [2] | ratio of mean micturition intervals (% of the pre-value) ([2]; about 30-60 min after start vs about 30 min before, pre-value made 100%, n=4) | reaction (change in intracellular calcium levels) in HT-1197 (HT-1197) | reaction (change in intracellular calcium levels) in UM-UC-3 (UM-UC-3)
[Cl][Cu][Cl] [copper chloride] | dose-dependently increased | approximately twice | not affected | 42.2±6.1% |  | 
[Cl][Ni][Cl] [nickel chloride] | dose-dependently increased |  |  |  | a reaction with nickel was detected | a reaction with nickel was detected
